Results taken from ChEMBL document CHEMBL2073972, “Contribution of OATP2 (OATP1B1) and OATP8 (OATP1B3) to the hepatic uptake of pitavastatin in humans” (J Pharmacol Exp Ther, 2004).

How the values were obtained:
[1] = biological target: T1, Solute carrier organic anion transporter family member 1B3 (Homo sapiens, UniProt Q9NPD5); assay: TP_TRANSPORTER: cell accumulation in OATP8-expressing HEK293 cells; assay type: functional, cell-based
T1 sequence (Q9NPD5 whole entry): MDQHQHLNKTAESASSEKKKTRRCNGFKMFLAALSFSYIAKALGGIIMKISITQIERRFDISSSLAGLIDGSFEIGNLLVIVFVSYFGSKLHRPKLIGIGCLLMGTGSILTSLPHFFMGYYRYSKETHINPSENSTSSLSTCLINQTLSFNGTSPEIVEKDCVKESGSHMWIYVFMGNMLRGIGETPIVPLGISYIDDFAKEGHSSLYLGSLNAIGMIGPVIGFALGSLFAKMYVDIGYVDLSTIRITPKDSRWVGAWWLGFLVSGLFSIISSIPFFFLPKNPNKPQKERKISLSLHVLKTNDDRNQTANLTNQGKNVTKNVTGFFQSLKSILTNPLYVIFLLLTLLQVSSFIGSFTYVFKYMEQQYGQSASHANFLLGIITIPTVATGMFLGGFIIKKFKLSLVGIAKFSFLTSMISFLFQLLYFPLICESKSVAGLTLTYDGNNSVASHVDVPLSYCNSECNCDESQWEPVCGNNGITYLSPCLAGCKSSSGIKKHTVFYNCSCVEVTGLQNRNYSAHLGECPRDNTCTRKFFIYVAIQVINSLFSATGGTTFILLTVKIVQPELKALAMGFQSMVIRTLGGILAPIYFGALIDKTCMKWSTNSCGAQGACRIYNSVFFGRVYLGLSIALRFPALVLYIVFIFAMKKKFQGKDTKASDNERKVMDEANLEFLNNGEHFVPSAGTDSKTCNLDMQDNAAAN

[2] = biological target: T2, Solute carrier organic anion transporter family member 1B1 (Homo sapiens, UniProt Q9Y6L6); assay: TP_TRANSPORTER: cell accumulation in OATP2-expressing HEK293 cells; assay type: functional, cell-based
T2 sequence (Q9Y6L6 whole entry): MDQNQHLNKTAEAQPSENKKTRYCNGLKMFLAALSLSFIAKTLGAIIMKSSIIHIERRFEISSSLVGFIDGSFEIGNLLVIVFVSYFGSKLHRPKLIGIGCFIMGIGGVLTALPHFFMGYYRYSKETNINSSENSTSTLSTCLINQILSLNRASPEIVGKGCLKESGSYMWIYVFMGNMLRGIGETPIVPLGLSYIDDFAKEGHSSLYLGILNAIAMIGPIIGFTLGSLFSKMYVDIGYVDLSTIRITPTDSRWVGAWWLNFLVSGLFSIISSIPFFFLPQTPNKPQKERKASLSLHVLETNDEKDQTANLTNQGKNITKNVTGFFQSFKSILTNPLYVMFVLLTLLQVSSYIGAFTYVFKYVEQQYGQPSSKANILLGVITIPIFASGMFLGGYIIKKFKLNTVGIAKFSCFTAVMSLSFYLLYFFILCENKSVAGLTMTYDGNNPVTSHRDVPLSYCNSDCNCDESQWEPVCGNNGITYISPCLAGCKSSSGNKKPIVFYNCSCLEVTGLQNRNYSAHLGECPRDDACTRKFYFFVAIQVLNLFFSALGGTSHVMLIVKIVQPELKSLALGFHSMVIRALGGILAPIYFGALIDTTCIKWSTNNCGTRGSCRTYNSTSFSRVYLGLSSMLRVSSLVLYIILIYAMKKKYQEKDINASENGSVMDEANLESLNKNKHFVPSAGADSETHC

SMILES | Activity [1] | Activity [2]
C[C@]12CC[C@@H]3c4ccc(O)cc4CC[C@H]3[C@@H]1CC[C@@H]2O[C@@H]1O[C@H](C(=O)O)[C@@H](O)[C@H](O)[C@H]1O [ESTRADIOL 17B GLUCURONIDE] | substrate [] | substrate []
CSCC[C@H](NC(=O)[C@H](Cc1ccc(OS(=O)(=O)O)cc1)NC(=O)[C@@H](N)CC(=O)O)C(=O)NCC(=O)N[C@@H](Cc1c[nH]c2ccccc12)C(=O)N[C@@H](CCSC)C(=O)N[C@@H](CC(=O)O)C(=O)N[C@@H](Cc1ccccc1)C(N)=O [SINCALIDE] | substrate [] | substrate []
O=C(O)C[C@H](O)C[C@H](O)/C=C/c1c(C2CC2)nc2ccccc2c1-c1ccc(F)cc1 [PITAVASTATIN] | substrate [] | substrate []
C[C@]12CC[C@@H]3c4ccc(OS(=O)(=O)O)cc4CC[C@H]3[C@@H]1CCC2=O [ESTRONE SULFURIC ACID] | substrate [] | substrate []
